Experimental findings from patent publication EP1090017B1, “NOVEL COMPOUNDS DERIVED FROM ALPHA-D-XYLOSE, PREPARATION METHOD AND THERAPEUTIC USE” (FOURNIER INDUSTRIE ET SANTE, priority 1998, dated 1999) are described below.

In one assay the test system is cholestérol sérique. As to the kind of experiment: Serum cholesterol (area under curve) measured periodically during the 14-week apoE-deficient mouse trial. The note with it: for AUC (aire sous courbe du cholestérol): whole 14 weeks of the trial. The format is in vivo, souris. The text has this: (§1) L'activité antiathéromateuse des composés selon l'invention a été mise en évidence sur des souris femelles, déficientes en apolipoprotéine E (homozygotes). Selon le protocole de ce test, le produit à évaluer est administré dans la nourriture (régime alimentaire standard) pendant 14 semaines. Après ce laps de temps, les souris sont euthanasiées et le coeur et la crosse aortique sont prélevés. Les surfaces lésées sont évaluées selon la méthode décrite dans Arteriosclerosis, 1990, 10, p. 316-323.
Durant les 14 semaines de l'essai décrit ci-dessus dans le but d'évaluer les propriétés antiathéromateuses des composés, on a mesuré périodiquement le taux de cholestérol sérique des souris traitées et des souris témoins, et le résultat est exprimé sous la forme aire sous courbe (AUC) du cholestérol pendant toute la durée de l'essai. Les résultats obtenus avec le composé de l'exemple 2 sont reportés dans le tableau II où AUC représente l'aire sous courbe (exprimée en g.jour.1^-1) et la variation (en pourcentage) est appréciée par rapport au groupe témoin. Tableau II

Assay [1] deals with souris femelles, déficientes en apolipoprotéine E (homozygotes). As to the kind of experiment: Antiatheromatous activity in apolipoprotein E-deficient mice: lesion surface after 14 weeks of compound in the food. The note with it: 300 mg/kg in the food, versus untreated control mice. Type of assay: in vivo.
Source text: as §1
Le tableau I présente les résultats obtenus selon ce test pratiqué avec le composé de l'exemple 2 à différentes doses. Les résultats sont exprimés en pourcentage de réduction de la surface des plaques d'athérome, par rapport à un groupe de souris témoin non traitées. Tableau I

With `N#Cc1ccc(C(=O)c2ccc(S[C@H]3SC[C@@H](O)[C@H](O)[C@H]3O)cc2)cc1` [Exemple 2, [4-(4-cyanobenzoyl)phényl] 1,5-dithio-α-D-xylopyranoside], the “variation (%) de l'AUC du cholestérol” value with cholestérol sérique (10 mg/kg, versus control group) is reported as 0%. Besides, the “AUC (aire sous courbe du cholestérol)” value with cholestérol sérique (10 mg/kg) was determined as 585 ± 15 g.jour.1^-1; in the assay with cholestérol sérique (100 mg/kg), 507 ± 16 g.jour.1^-1; in the assay with cholestérol sérique (300 mg/kg), 505 ± 20 g.jour.1^-1.
Take `N#Cc1ccc(C(=O)c2ccc(S[C@@H]3SC[C@@H](O)[C@H](O)[C@H]3O)cc2)cc1` [[4-(4-cyanobenzoyl)phényl] 1,5-dithio-β-D-xylopyranoside]: in assay [1], the “Réduction (%) de la surface des plaques d'athérome” value amounted to 30%.
